This note sets out measurements from patent US6620967B1, “Ketosis-treating agent” (priority 1999, dated 2003).

Each structure is given as a SMILES string.

For the test, the system named is Wistar male rats subjected to ketosis under starvation for 48 hours. Briefly: Effects at oral administration in rats subjected to ketosis under starvation. In kind it is in vivo, rat. Particulars: oral (into the stomach), 1 or 2 mmol/kg-body weight, blood from tail vein up to 240 minutes after administration. As for the experimental part:
Wistar male rats of 6 to 8 week age were subjected to ketosis under starvation for 48 hours and then used for experiment. Each of glutamine, glutamic acid, valine, isoleucine and serine was dissolved in water for injection and administered into the stomach using a gastroconductor to give a dose of 1 or 2 mmol/kg-body weight. As controls, the same quantity of water for injection was similarly administered, or each of glucose and alanine was similarly administered to give a dose of 1 or 2 mmol/kg-body weight.
Before the administration, and 30, 60, 90, 120, 180 and 240 minutes after the administration, blood was collected from a tail vein and the concentration of glucose in blood and the concentration of 3-hydroxybutyric acid usually measured for diagnosis of ketosis were measured.
FIGS. 1 to 10 show changes of the concentrations of glucose and 3-hydroxybutyric acid in blood, which are expressed as rates of change from the values before the administration (FIG. 1: water for injection, FIG. 2: 1 mmol/kg of glucose, FIG. 3: 1 mmol/kg of alanine, FIG. 4: 2 mmol/kg of alanine, FIG. 5: 1 mmol/kg of glutamine, FIG. 6: 1 mmol/kg of glutamic acid, FIG. 7: 1 mmol/kg of valine, FIG. 8: 2 mmol/kg of valine, FIG. 9: 2 mmol/kg of isoleucine, FIG. 10: 2 mmol/kg of serine). In the figures, the symbols “-∘-” and “-▴-” correspond to the rates of change of 3-hydroxybutyric acid and glucose, respectively.
Furthermore, as shown in the figures, the effect on reduction of ketone bodies disappeared within about 4 hours when glucose was used. On the other hand, when glutamine, glutamic acid, valine or isoleucine was used, the period of effecting the reduction of the concentration of ketone bodies was expected to be 24 hours or more, and therefore, they were effective as ketosis-treating agents having long duration of the effect.
In the case of `CC[C@H](C)[C@H](N)C(=O)O` [isoleucine], the “concentration of glucose in blood, change from value before administration” value is on record as “without largely increasing the concentration of glucose in blood” and the “concentration of ketone bodies (3-hydroxybutyric acid) in blood, change from value before administration” value was “reduced the concentration of ketone bodies”.

With `N[C@@H](CO)C(=O)O` [serine], the “concentration of glucose in blood, change from value before administration” value was “without largely increasing the concentration of glucose in blood” and the “concentration of ketone bodies (3-hydroxybutyric acid) in blood, change from value before administration” value was “reduced the concentration of ketone bodies”.

On to `CC(C)[C@H](N)C(=O)O` [valine], for which the “concentration of glucose in blood, change from value before administration” value is “without largely increasing the concentration of glucose in blood” and the “concentration of ketone bodies (3-hydroxybutyric acid) in blood, change from value before administration” value was “reduced the concentration of ketone bodies”.
